Key:
HepG2 cells [1] = experiment: MTT cytotoxicity test on HepG2 cells; format: cell-based, human; settings: concentrations of 1 to 100 μM, 48 hours, FIG. 11
Experimental: (§1) In this test, a HepG2 cell, a human liver-derived tumor cell line was used as a living cell. HepG2 cells were cultured in a DMEM medium (containing 10% FBS, 100 U/mL penicillin and […] streptomycin) in the presence of 5% CO2 at 37° C. and saturated humidity.
(§2) Ceratonia siliqua B was diluted with a DMEM medium to obtain sample solutions with different concentrations of 1 μM, 5 μM, 10 μM, 50 μM and 100 μM.
First, an MTT test was performed to confirm the presence or absence of cytotoxicity of Ceratonia siliqua B against HepG2 cells. HepG2 cells that have been subcultured for three generations or more were treated with trypsin to prepare a single cell suspension having a concentration of 1×10^5 cells/mL. A 100 μL portion of this cell suspension was seeded in each well of a 96-well microplate and cultured in a CO2 incubator for 24 hours. After culturing, the supernatant was removed, and the wells were divided into a control (blank control) group and a test group. […] After 4 hours, the supernatant was removed, a 150 μL portion of DMSO was added to each well, and the absorbance at 570 nm was measured with a microplate reader. […]
(§3) The cell viability of the test group was calculated taking the value for the control (blank control) group as 100.

HepG2 cells [2] = experiment: Measurement of ROS in HepG2 cells (hydrogen peroxide induced, DCFH-DA); format: cell-based, human; settings: 1-100 μM, 24 hours pre-culture, 400 μM hydrogen peroxide 90 minutes, FIG. 12
Experimental: Ceratonia siliqua B obtained in Example 2 was used to examine the effect of Ceratonia siliqua B on the generation of reactive oxygen species (ROS) in living cells.
as §1
A HepG2 cell suspension having a concentration of 1×10^5 cells/mL was prepared, and a 100 μL portion of the cell suspension was seeded in each well of a 96-well microplate and cultured in a CO2 incubator for 24 hours. These wells were divided into a blank control group, a positive control group and a test group. […] Thereafter, the medium in each well was removed, 100 μL of PBS was added thereto, and fluorescence intensity at 535 nm was measured at an excitation wavelength of 485 nm. The amount of ROS generated in the positive control group and the test group was calculated taking the fluorescence intensity of the blank control group as 1.0 (basal). […]

[3] = DPPH radical scavenging activity; format: biochemical; settings: sample solutions 1-100 μM, 30 minutes at room temperature in the dark, absorbance 517 nm, FIG. 10
Experimental: Ceratonia siliqua B obtained in Example 2 was used to measure the DPPH radical scavenging activity of Ceratonia siliqua B.
First, Ceratonia siliqua B obtained in Example 2 was accurately weighed out and dissolved in methanol to prepare a sample solution with a concentration of 100 μM. This sample solution having a concentration of 100 μM was further diluted with methanol to obtain sample solutions with different concentrations of 1 μM, 5 μM, 10 μM and 50 μM. Next, 2 mg of DPPH (2,2-diphenyl-1-picrylhydrazyl) was dissolved in 50 mL of methanol to prepare a 100 μM DPPH solution.
A 190 μL portion of the DPPH solution was placed in each of wells of a 96-well microplate, and 10 μL of the sample solution was quickly added thereto. […] Thereafter, the absorbance at 517 nm (Asample) was measured with a microplate reader. The reaction solution to which methanol was added instead of the sample solution was used as a blank, and the absorbance of the blank (Ablank) was measured. In addition, the absorbance (Asample blank) due to coloration of the sample solution itself at each concentration was measured as a sample blank. […]
The radical scavenging rate (%) was determined by the following equation.
[formula] • wherein Ablank is the absorbance of the blank, Asample is the absorbance of the sample solution, and Asample blank is the absorbance of the sample blank.

B16 melanoma cells [4] = experiment: Amount of melanin produced in B16 melanoma cells (melanogenesis inhibition); format: cell-based, mouse; settings: for inhibition at 10 µM: concentration 10 μM
Experimental: (§4) In this test, B16 melanoma cells were used. A B16 melanoma cell, a mouse skin melanoma-derived cell line, has melanogenic capacity. B16 melanoma cells were cultured in a DMEM medium (containing 10% FBS, 100 U/mL penicillin and […] streptomycin) in the presence of 5% CO2 at 37° C. and saturated humidity.
as §2
A single cell suspension of B16 melanoma cells was prepared, and 4×10^4 B16 melanoma cells were seeded in each well of a 12-well microplate. After culturing overnight in a CO2 incubator, the supernatant was removed, and the wells were divided into a blank control group, a positive control group and a test group. A 1 mL portion of a DMEM medium was added to each well of the blank control group, a 1 mL portion of each of solutions of L-ascorbic acid dissolved in DMEM medium at different concentrations (a concentration of L-ascorbic acid: 0.1 μM, 5 μM, 10 μM) was added to each well of the positive control group, and a 1 mL portion of each of the sample solutions from the above (b) was added to each well of the test group. After culturing for 48 hours, the supernatant was removed from each well followed by washing twice with PBS buffer, treatment with trypsin and addition of 1.2 mL of PBS buffer to prepare a single cell suspension. A 200 μL aliquot of this cell suspension was taken to determine the protein content. The remaining cell suspension was centrifuged at 3000 rpm for 5 minutes to remove the supernatant. Thereafter, 250 μL of a 1 M NaOH solution containing 1% DMSO was added thereto and dissolved for 30 minutes in a water bath heated to 80° C. A 200 μL aliquot of this solution was taken and the absorbance at 405 nm (Atest group, Apositive control group, Ablank control group) was measured. The test was performed in triplicate (3 wells) for the blank control group, for the positive control group and for each concentration of the sample solution in the test group (n=3).
The intracellular melanogenesis inhibition rate (%) was determined for the test group and the positive control group by the following equations:
[formula] • wherein Atest group is the absorbance of the test group, Apositive control group is the absorbance of the positive control group, and Ablank control group is the absorbance of the blank control group.

B16 melanoma cells [5] = experiment: MTT cytotoxicity test on B16 melanoma cells; format: cell-based, mouse; settings: concentrations of 1 to 100 μM, 48 hours, FIG. 13
Experimental: as §4, §2
First, an MTT test was performed to confirm the presence or absence of cytotoxicity of Ceratonia siliqua B against B16 melanoma cells. B16 melanoma cells that had been subcultured for three generations or more were treated with trypsin to prepare a single cell suspension having a concentration of 3×10^4 cells/mL. A 100 μL portion of this cell suspension was seeded in each well of a 96-well microplate and cultured overnight in a CO2 incubator. The supernatant was removed from each well, and the wells were divided into a control (blank control) group and a test group. […] After 4 hours, the supernatant was removed, a 150 μL portion of DMSO was added to each well, and the absorbance at 570 nm was measured with a microplate reader. […]
as §3

[6] = Mus musculus, B16, 48 h, 48 hours, B16 melanoma cells, read-out: Melanogenesis inhibition rate (%)

Q: For `COc1cc(/C=C/COC(=O)C(C)C)cc(OC)c1O[C@@H]1O[C@H](CO)[C@@H](O)[C@H](O)[C@H]1O` [Ceratonia siliqua B], which “cytotoxicity against HepG2 cells (MTT, cell viability)” value (HepG2 cells [1]) is on record?
A: no cytotoxicity

Q: And the “ROS generation inhibiting effect in HepG2 cells” value (HepG2 cells [2])?
A: inhibited the increase in ROS induced by hydrogen peroxide in HepG2 cells in a concentration-dependent manner

Q: What about the “DPPH radical scavenging activity” value [3] of the same molecule?
A: scavenge DPPH radicals in a concentration-dependent manner

Q: What about the inhibition at 10 µM (B16 melanoma cells [4]; [6]) of the same molecule?
A: 20.2%

Q: What about the inhibition at 50 µM (B16 melanoma cells [4]; Mus musculus, B16, 48 h, concentration 50 μM, 48 hours, B16 melanoma cells, read-out: Melanogenesis inhibition rate (%)) of the same molecule?
A: 25.6%

Q: And the inhibition at 100 µM (B16 melanoma cells [4]; Mus musculus, B16, 48 h, concentration 100 μM, 48 hours, B16 melanoma cells, read-out: Melanogenesis inhibition rate (%))?
A: > 30%

Q: What about the “inhibition effect on melanogenesis in B16 melanoma cells (in words)” value (B16 melanoma cells [4]; concentration of 10 to 100 μM, P<0.05) of the same molecule?
A: significant inhibition effect on melanogenesis

Q: What about the “cytotoxicity against B16 melanoma cells (MTT, cell viability)” value (B16 melanoma cells [5]) of the same molecule?
A: no cytotoxicity

Q: Which results are given for `O=C1O[C@H]([C@@H](O)CO)C(O)=C1O` [L-Ascorbic acid, L-ascorbic acid, reference compound]?
A: inhibition at 0.1 µM (B16 melanoma cells [4]; Mus musculus, B16, 48 h, concentration 0.1 μM, 48 hours, B16 melanoma cells, read-out: Melanogenesis inhibition rate (%)): 9.2%; inhibition at 5 µM (B16 melanoma cells [4]; Mus musculus, B16, 48 h, concentration 5 μM, 48 hours, B16 melanoma cells, read-out: Melanogenesis inhibition rate (%)): 15.6%; inhibition at 10 µM (B16 melanoma cells [4]; [6]): 32.8%

— patent publication US20240270779A1, “NOVEL PHENYLPROPANOID COMPOUND” (NABOCUL COSMETICS CO., LTD., priority 2021, published 2024)
